Data set [1] deals with CL141. In words: Cytotoxicity, sulforhodamine B (SRB) assay. The format is cell-based. The note with it: read-out: IC50 for prochlorperazine metabolites, CL141 parental cells. How it is done: (§1) Cells were plated in 96-well plates at a density of 2000 cells per well in triplicate. The cells were treated on the third day (to ensure proper plating efficiency and vitality) to indicated agents for 48 hrs. […] Cytotoxicity was assessed using the sulforhodamine B (SRB) assay (23). Briefly, the medium was discarded, and the adherent cells were fixed by 100 μl of cold 10% trichioroacetic acid (w/v) in each well for 1 h at 4° C. After fixation, cells were stained with 100 μl/well of 0.4% (w/v, in 1% acetic acid) SRB solution for 30 min at room temperature, and then washed 5 times with 1% acetic acid. After air-drying, 100 μl of 10 mM Tris base was added to each well and the absorbance was read at 530 nm. Cytotoxicity is expressed as the percent of cells in drug treated wells relative to number of cells in the solvent only control (set to 100%). Each experiment was performed independently at least 2 times in triplicate and cytotoxicity is given as means ±SD.
(§2) A549, A549-ON, CL97, CL141, HCC827, and H441 were lung adenocarcinoma cell lines. CL152, H2170, and H226 were squamous cell carcinoma cell lines. Cell viability was determined by SRB assay. […] To determine whether side population (SP) cells, which represent a cell population with CSC characteristics, exist in NSCLC cell lines, we stained the cells with the fluorescent dye, Hoechst 33342, and analyzed the cells with flow cytometry.
Background: The SRB assay estimates cell density from bound dye.

Data set [2] concerns CL152. As to the kind of experiment: Cytotoxicity, sulforhodamine B (SRB) assay. The data set is classed as cell-based. Conditions: read-out: IC50 for prochlorperazine metabolites, CL152 parental cells. On the procedure:
as §1, §2

Data set [3] has as its system NSCLC cell lines. On the procedure:
as §1, §2

Data set [4] deals with CL141 spheres. In words: Cytotoxicity at sphere cells, Trypan Blue Exclusion method. The data set is classed as cell-based. The note with it: read-out: IC50 for prochlorperazine metabolites.
The subject of data set [5] is CL152 spheres. The description is as above. The note with it: read-out: IC50 for prochlorperazine metabolites. The format is cell-based.
The subject of data set [6] is CL141. In words: Clonogenic assay. The format is cell-based. Conditions: CL141; approximately 1,000 cells seeded, 14 days. From the text: […] […] After the treatments, cells were washed with PBS, and the colonies were fixed with fix solution (methanol: acetic acid=3:1) and stained with 0.5% crystal violet in methanol. After removing the crystal violet carefully and rinse with tap water, the colonies were counted manually.

The test system of data set [7] is NCI-H441 cells expressing firefly luciferase. In words: NCI-H441 firefly luciferase tail vein tumor model, drug combination test. The data set is classed as in vivo, mice. Conditions: cisplatin 1 mg/kg + pemetrexed 1 mg/kg. How it is done:
In the first drug combination test, NCI-H441 cells expressing firefly luciferase (6×10^5 cells/injection) were injected into NOD/SCID mice (4-6 week of age) via the lateral tail vein for tumor establishment. […] Tumor burden from different groups were recorded by caliper. The change in tumor size was expressed as in fold change and plotted over time. Subsequently, we performed another set of drug combination test. […] For lung adenocarcinoma, the standard drug combination is pemetrexed and cisplatin whereas are used gemcitabine and cisplatin for lung squamous carcinoma. […] CL97 cancer cells (1.5×10^6 cells per injection) were injected subcutaneously into NOD/SCID mice to establish in viva tumor model.
In the drug combination test ([…]), NCI-H441 cells expressing firefly luciferase ([…] cells/injection) were injected into NOD/SCID mice (4-6 week of age) via the lateral tail vein for tumor establishment.

The subject of data set [8] is A549 cells. In words: Senescence, β-galactosidase (SA-β-Gal) activity. Conditions: A549, 24 hours; 1 μM prochlorperazine, 50 μM resveratrol as positive control. The format is cell-based. From the text: EMT also plays a critical role in the regulation of cancer sternness. EMT is characterized by enhanced cell migration and invasion.

Some results are limits rather than exact numbers.

As a reminder, the IC50 is the concentration at which inhibition is half-maximal.

As for `Clc1ccc2c(c1)N(CCCN1CCNCC1)c1ccccc1S2` [N-desmethyl prochlorperazine], the IC50 in data set [1] is 5 to 10 µM; in data set [2], around 10 µM; in data set [4], below 5 µM; in data set [5] it was below 5 µM. Also, the “cytotoxic effect in NSCLC cell lines compared with other metabolites” value in data set [3] is listed as “better cytotoxic effect than other tested metabolites”.
For the molecule `CCc1ccc2c(c1)N(CCCN(CCCl)CCCl)c1ccccc1S2` [NSC 166184], in data set [6], the “Clonogenic assay for prochlorperazine analogs” value is recorded as 1-2.5 μM.
Take `CN1CCN(CCCN2c3ccccc3[S+]([O-])c3ccc(Cl)cc32)CC1` (stereo not shown) [Prochlorperazine sulfoxide]: the IC50 is above 20 µM in data set [1], above 20 µM in data set [2], 5 to 10 µM in data set [4] and above 10 µM in data set [5].
On to `CCN(CC)CCCN1c2ccccc2Sc2ccc(Cl)cc21` [NSC 169470], for which, in data set [6], the “Clonogenic assay for prochlorperazine analogs” value was 5-10 μM.
Still for that read-out and setting: the result for `CN(C)c1ccc(-c2c3ccccc3nc3ccc(Cl)cc23)cc1` [NSC 406619] reads 2.5-5 μM.
On to `N.N.[Cl][Pt][Cl]` [cisplatin], for which the “inhibitory effect on tumor growth, cisplatin in combination with pemetrexed vs pemetrexed alone” value in data set [7] is on record as “not significantly different”.
On to `C[N+]1([O-])CCN(CCCN2c3ccccc3[S+]([O-])c3ccc(Cl)cc32)CC1` (stereo not shown) [Prochlorperazine sulfoxide 4′-N-oxide], for which the IC50 in data set [1] is above 20 µM; in data set [2] it was above 20 µM; in data set [4], above 10 µM; in data set [5] it was above 10 µM.
Take `CC1(C)CCCN1CCCN1c2ccccc2Sc2ccc(Cl)cc21` [NSC 14948]: in data set [6], the “Clonogenic assay for prochlorperazine analogs” value was 5-10 μM.
Regarding `Oc1ccc(C=Cc2cc(O)cc(O)c2)cc1` [resveratrol], the “β-galactosidase activity (senescence)” value in data set [8] is given as “increased β-galactosidase activity”.

The record behind these values is patent US20170105999A1, “METHOD FOR TREATING DRUG RESISTANT CANCER” (NATIONAL YANG MING UNIVERSITY, priority 2014, published 2017).
